What was measured:
[1] = tested on: HIV-1 NL4-3 luciferase reporter virus in primary CD4+ T cells
Experimental: (§1) FIGS. 7A and 7B. LSD1/KDM1 is a potential drug target in HIV transcription. (A) J-Lat A2 cells were stimulated with 0.08 ng/ml of TNFα in the presence of increasing amounts of phenelzine (100, 300, 1000 or 3000 μM), DRB (0.3, 1, 3 or 10 μM) or dimethylsulfoxide (DMSO) as carrier control overnight. Numbers of GFP+ cells as well as propidium iodide (PI)-negative cells as a measure of intact cell viability were analyzed by flow cytometry. The percentage compared to DMSO-treated control cells was calculated. The average of two independent experiments is shown. (B) Purified resting primary CD4+ T cells were infected at a high multiplicity of infection (M.O.I.) with infectious HIV-NL4-3 luciferase reporter virus. Three days after infection, cells were stimulated with α-CD3 and α-CD28 antibodies in the presence of phenelzine (100, 300, or 1000 μM), DRB (1 or 10 μM) or DMSO overnight followed by analysis for luciferase activity and PI uptake.

primary CD4+ T cells = tested on: primary CD4+ T cells
Experimental: as §1

J-Lat A2 cells = assay: Cell viability of J-Lat A2 cells (propidium iodide-negative cells, flow cytometry); conditions: at the tested concentrations
Experimental: as §1

[2] = tested on: HIV transcription in J-Lat A2 cells; assay: cells; assay type: cell-based; conditions: for effect on TNFα-mediated activation of gene expression: phenelzine 100-3000 μM, DRB 0.3-10 μM
Experimental: Culhane et al. (2010) J Am Chem Soc 132: 3164-3176. To test the activity of this agent in HIV infection, J-Lat A2 cells were treated with increasing amounts of phenelzine or the CDK inhibitor 5,6-dichloro-1-β-D-ribofuranosyl-1H-benzimidazole (DRB), a known Tat inhibitor.
as §1

[3] = target: C-terminal FLAG tagged Tat protein (Tat/FLAG), expressed in cells (HIV) (UniProt P04608); assay: cell-based or functional assay
[4] = target: synthetic Tat protein (aa 1-72), K51 monomethylated (UniProt P04608)
[5] = tested on: histone H3 dimethylated at lysine 4 (in purified total cellular histones)

## NNCCc1ccccc1 (racemic) [phenelzine, (±)-2-phenylethylhydrazine]
[1]; nonactivated primary T cells
  basal expression of luciferase: suppressed the basal expression of luciferase in nonactivated cells
[1]; primary CD4+ T cells of two donors, α-CD3/α-CD28 stimulation, phenelzine 100-1000 μM
  activation of luciferase expression: successfully suppressed
[1]; primary T cells
  suppression of HIV gene expression compared with DRB: more efficient in suppressing HIV gene expression than DRB
Primary CD4+ T cells
  cell viability (PI uptake): slight decrease in cell viability was observed in one donor
J-Lat A2 cells
  cell toxicity (PI-negative cells): No cell toxicity was observed
[2]; Human immunodeficiency virus 1, J-Lat A2, read-out: IC50, prevention of TNFα-mediated activation of gene expression (GFP+ cells)
  IC50: 300 µM
[2]; J-Lat A2 cells, TNFα-stimulated
  concentrations needed relative to DRB: ~150 fold
[2]; J-Lat A2 cells
  effect on TNFα-mediated activation of gene expression: prevented TNFα-mediated activation of gene expression in a dose-dependent manner

## OC[C@H]1O[C@@H](n2cnc3cc(Cl)c(Cl)cc32)[C@H](O)[C@@H]1O [DRB, 5,6-dichloro-1-β-D-ribofuranosyl-1H-benzimidazole]
J-Lat A2 cells
  cell toxicity (PI-negative cells): No cell toxicity was observed
[2]; J-Lat A2 cells
  effect on TNFα-mediated activation of gene expression: prevented TNFα-mediated activation of gene expression in a dose-dependent manner

## endogenous LSD1/KDM1 (lysine-specific demethylase-1) in cells (from UniProt O60341 1-852) (enzyme)
[3]
  decrease in Tat transactivation of the HIV LTR luciferase reporter in HeLa cells after LSD1/KDM1 siRNA: 50%

## recombinant LSD1/KDM1 (His-tagged, prokaryotic expression)
[4]
  in vitro demethylation, western blot with α-Me1K51 Tat antibodies: Recombinant LSD1/KDM1 demethylated synthetic monomethylated Tat in a dose-dependent manner
[5]
  in vitro demethylation of purified histones, western blot with α-Me2H3K4: LSD1/KDM1 also demethylated its cognate substrate, dimethyl lysine 4 in histone H3, as expected

From patent US20120108500A1, “Compositions and Methods for Modulating Immunodeficiency Virus Transcription” (priority 2010, published 2012)
